≈ marks a conversion by molar mass, not a printed value. Like-named read-outs stand apart in the source and are kept apart here.
Tests used:
S. aureus (ATCC29213) = assay: 50% growth inhibitory concentration (IC50) determination assay, S. aureus; assay type: cell-based; conditions: Iso-Sensitest broth, growth by OD 600 nm over 16 h, <0.098 = detection limit
Protocol: (§1) The in vitro antimicrobial activity of the compounds against S. aureus (ATCC29213), K. pneumoniae (ATCC10031), and A. baumannii (ATCC17978), was determined according to the following procedure: The assay used a 10-points Iso-Sensitest broth medium to measure quantitatively the in vitro activity of the compounds against S. aureus ATCC29213, K. pneumoniae ATCC 10031, and A. baumannii ATCC17978. Stock compounds in DMSO were serially two-fold diluted (range from 50 to 0.097 μM final concentration) in 384 wells microtiter plates and inoculated with 49 μL the bacterial suspension in Iso-Sensitest broth medium to have a final cell concentration of ˜5×10^5 CFU/mL in a final volume/well of 50 μL/well. Microtiter plates were incubated at 35±2° C. Bacterial cell growth was determined with the measurement of optical density at λ=600 nm each 20 minutes over a time course of 16 h.

[1] = test system: K. pneumoniae (ATCC10031); assay: 50% growth inhibitory concentration (IC50) determination assay, K. pneumoniae; assay type: cell-based; conditions: Iso-Sensitest broth, growth by OD 600 nm over 16 h, <0.098 = detection limit
Protocol: as §1

A. baumannii (ATCC17978) = assay: 50% growth inhibitory concentration (IC50) determination assay, A. baumannii; assay type: cell-based; conditions: Iso-Sensitest broth, growth by OD 600 nm over 16 h, <0.098 = detection limit
Protocol: as §1

[2] = test system: multiple species and strains; assay: microbe, parasite or virus in culture; design: MIC S9 / MIC S7 / MIC S11 / MIC S8 / MIC S10: unit not given beside the values; conditions: for MIC S9: E. coli ATCC 35218; for MIC S11: E. coli ATCC 25922; for MIC S7: P. aeruginosa ATCC 27853
Protocol: The MIC of antibacterial compounds against multiple species and strains was determined using the broth microdilution method according to M07-A10 Clinical and Laboratory Standards Institute (CLSI) guidelines (CLSI (2015) Methods for dilution antimicrobial susceptibility tests for bacteria that grow aerobically; Approved Standard, Tenth Edition. CLSI Document M7-A10 (ISBN 1-56238-987-4). Wayne, Pa.: Clinical and Laboratory Standards Institute, 19087, USA.). In short, bacterial strain preparation was performed on D1 and D2. […] 5-10 well-isolated colonies of similar morphology were selected and re-streaked onto fresh agar plates using sterile loops and incubated for 20-24 hr at 35±2° C. Bacterial strains were subcultured two times to ensure fresh inoculums for MIC screening. […] Alternatively, 1-2 colonies were transferred into 500 μL of saline and OD600 was adjusted to ˜0.1 using an OD meter. Bacterial inoculum was diluted by 1:280 for Gram-positive strains and 1:400 for Gram-negative strains into corresponding medium broth (CAMHB, CAMHB+3% lysed horse blood, HTM) (e.g. 35.6 μL of inoculum into 10 mL of CAMHB or 25 μL of inoculum into 10 mL of CAMHB). For compound plate, the compound stock solutions were prepared in 100% DMSO on the day of MIC screening and used immediately. Compound stock concentration=[(highest testing concentration)×100 μL/2 μL] (e.g. if the required highest testing concentration is 64 μg/mL in assay plates, stock concentration=64 μg/mL×100 μL/2 μL=3.2 mg/mL). […] 1 μL of each well was transferred in a new MTP, which served as the test plate by subsequent inoculation. The bacterial suspension prepared above is dispensed at 98 μL/well within 15 minutes after preparation. Negative controls (lack of bacterial cells) and growth control wells (lack of compound) were included in all plates. MTPs were incubated for 18-24 hours at 35±2° C. in ambient air. The MIC was recorded and CFUs were calculated on Day 4. The assay plate was placed on the top of MIC reader, and the magnification mirror was adjusted to read each wells, recording growth status as raw data. Photo images of each assay plates were recorded using Q Count 530 (Spiral Biotech). The MIC value of each compound, expressed as μg/mL, was determined as the lowest concentration required for complete growth inhibition (no visible growth).

[3] = Staphylococcus aureus, ATCC29213
[4] = Klebsiella pneumoniae, ATCC10031
[5] = Acinetobacter baumannii, ATCC17978
[6] = Acinetobacter baumannii, ATCC19606, read-out: MIC S1, A. baumannii ATCC 19606
[7] = Acinetobacter baumannii, ATCC51432, read-out: MIC S2, A. baumannii ATCC 51432
[8] = Acinetobacter baumannii, ATCCBAA747, read-out: MIC S3, A. baumannii ATCC BAA-747
[9] = Escherichia coli, ATCC25922, read-out: MIC S11, E. coli ATCC 25922
[10] = Escherichia coli, ATCCBAA2340, read-out: MIC S10, E. coli ATCC BAA-2340
[11] = Klebsiella pneumoniae, ATCC10031, read-out: MIC S4, K. pneumoniae ATCC 10031
[12] = Klebsiella pneumoniae, ATCC700603, read-out: MIC S5, K. pneumoniae ATCC 700603
[13] = Klebsiella pneumoniae, ATCCBAA2146, read-out: MIC S6, K. pneumoniae ATCC BAA-2146
[14] = Pseudomonas aeruginosa, ATCC27853, read-out: MIC S7, P. aeruginosa ATCC 27853
[15] = Pseudomonas aeruginosa, ATCCBAA2113, read-out: MIC S8, P. aeruginosa ATCC BAA-2113

Row | Structure (SMILES) | IC50 (S. aureus (ATCC29213); [3]) [nM] | IC50 [1, 4] [nM] | IC50 (A. baumannii (ATCC17978); [5]) [nM] | MIC [2, 6] [µg/mL] | MIC [2, 7] [µg/mL] | MIC [2, 8] [µg/mL] | MIC S9 [2] | MIC [2, 9] [µg/mL] | MIC [2, 10] [µg/mL] | MIC [2, 11] [µg/mL] | MIC [2, 12] [µg/mL] | MIC [2, 13] [µg/mL] | MIC [2, 14] [µg/mL] | MIC [2, 15] [µg/mL] | MIC S11 [2] | MIC S7 [2] | other results
1 | CNc1cc(F)c(F)c2c1[nH]c1ncc(-c3ccc4c(Cl)cc(C(=O)O)c(=O)n4c3)c(N3CC[C@H]4CN(C)C[C@H]43)c12 (relative stereo) [Example 2.11, 7-[4-[cis-5-methyl-2,3,3a,4,6,6a-hexahydropyrrolo[2,3-c]pyrrol-1-yl]-5,6-difluoro-8-(methylamino)-9H-pyrido[2,3-b]indol-3-yl]-1-chloro-4-oxo-quinolizine-3-carboxylic acid] | < 98 | < 98 | < 98 | 0.27 (≈ 0.466 µM) | 0.541 (≈ 0.934 µM) | 0.541 (≈ 0.934 µM) | 1.081 | 0.203 (≈ 0.351 µM) | 1.08 (≈ 1.87 µM) | 0.068 (≈ 0.117 µM) | 4.33 (≈ 7.48 µM) | 4.33 (≈ 7.48 µM) | 2.17 (≈ 3.74 µM) | 4.33 (≈ 7.48 µM) | – | – | –
2 | CNc1cc(F)c(C#N)c2c1[nH]c1ncc(-c3ccc4ccc(C(=O)O)c(=O)n4c3)c(N3C[C@H]4CCN(C)[C@H]4C3)c12 (single isomer, unassigned) [Example 1.11, 7-[5-cyano-6-fluoro-4-(cis-1-methyl-2,3,3a,4,6,6a-hexahydropyrrolo[3,4-b]pyrrol-5-yl)-8-(methylamino)-9H-pyrido[2,3-b]indol-3-yl]-4-oxo-quinolizine-3-carboxylic acid] | < 98 | < 98 | < 98 | 0.26 (≈ 0.471 µM) | 0.26 (≈ 0.471 µM) | 0.26 (≈ 0.471 µM) | 0.260 | – | 0.26 (≈ 0.471 µM) | 0.033 (≈ 0.0598 µM) | 1.04 (≈ 1.88 µM) | 1.04 (≈ 1.88 µM) | – | 2.08 (≈ 3.77 µM) | 0.097 | 1.038 | –
3 | CNc1cc(F)c(C#N)c2c1[nH]c1ncc(-c3ccc4ccc(C(=O)O)c(=O)n4c3)c(N3C[C@H]4CCN(C)[C@H]4C3)c12 (single isomer, unassigned) [Example 1.16, 7-[4-[cis-1-methyl-2,3,3a,4,6,6a-hexahydropyrrolo[3,4-b]pyrrol-5-yl]-5-cyano-6-fluoro-8-(methylamino)-9H-pyrido[2,3-b]indol-3-yl]-4-oxo-quinolizine-3-carboxylic acid] | – | – | – | – | – | – | 0.216 | – | – | – | – | – | – | – | 0.040 | 0.431 | IC50 (S. aureus (ATCC29213)): < 98 nM; IC50 [1]: < 98 nM; IC50 (A. baumannii (ATCC17978)): < 98 nM; MIC S1 ([2]; A. baumannii ATCC 19606): 0.431; MIC S2 ([2]; A. baumannii ATCC 51432): 0.216; MIC S3 ([2]; A. baumannii ATCC BAA-747): 0.216; MIC S10 ([2]; E. coli ATCC BAA-2340): 0.216; MIC S4 ([2]; K. pneumoniae ATCC 10031): 0.027; MIC S5 ([2]; K. pneumoniae ATCC 700603): 1.724; MIC S6 ([2]; K. pneumoniae ATCC BAA-2146): 1.724; MIC S8 ([2]; P. aeruginosa ATCC BAA-2113): 3.447
4 | CNc1cc(F)c(F)c2c1[nH]c1ncc(-c3ccc4ccc(C(=O)O)c(=O)n4c3)c(N3CC[C@@]4(C[C@@H]4N)C3)c12 (single isomer, unassigned) [Example 4.01A] | < 98 | < 98 | < 98 | 0.445 (≈ 0.839 µM) | 0.445 (≈ 0.839 µM) | 0.592 (≈ 1.12 µM) | 0.297 | 0.111 (≈ 0.209 µM) | 0.297 (≈ 0.56 µM) | 0.074 (≈ 0.139 µM) | 2.37 (≈ 4.47 µM) | 2.37 (≈ 4.47 µM) | 0.592 (≈ 1.12 µM) | 1.19 (≈ 2.24 µM) | – | – | –
5 | CNc1cc(F)c(F)c2c1[nH]c1ncc(-c3ccc4ccc(C(=O)O)c(=O)n4c3)c(N(C)C)c12 [Example 1.01, 7-(4-(Dimethylamino)-5,6-difluoro-8-(methylamino)-9H-pyrido[2,3-b]indol-3-yl)-4-oxo-411-quinolizine-3-carboxylic acid] | < 98 | < 98 | < 98 | 0.057 (≈ 0.123 µM) | 0.45 (≈ 0.971 µM) | 0.225 (≈ 0.485 µM) | 0.113 | 0.169 (≈ 0.365 µM) | 0.225 (≈ 0.485 µM) | 0.057 (≈ 0.123 µM) | 0.45 (≈ 0.971 µM) | 1.8 (≈ 3.89 µM) | 0.901 (≈ 1.94 µM) | 0.901 (≈ 1.94 µM) | – | – | –
6 | CNc1cc(F)c(Cl)c2c1[nH]c1ncc(-c3ccc4ccc(C(=O)O)c(=O)n4c3)c(N3CC[C@H]4CN(C)C[C@H]43)c12 [Example 1.07, 7-(5-chloro-6-fluoro-8-(methylamino)-4-((3aS,6aS)-5-methyl-2,3,3a,4,6,6a-hexahydropyrrolo[2,3-c]pyrrol-1-yl)-9H-pyrido[2,3-b]indol-3-yl)-4-oxo-4H-quinolizine-3-carboxylic acid] | < 98 | < 98 | < 98 | 0.066 (≈ 0.118 µM) | 0.066 (≈ 0.118 µM) | 0.263 (≈ 0.469 µM) | 0.132 | 0.049 (≈ 0.0873 µM) | 0.132 (≈ 0.235 µM) | 0.033 (≈ 0.0588 µM) | 1.05 (≈ 1.88 µM) | 0.527 (≈ 0.939 µM) | 0.527 (≈ 0.939 µM) | 8.44 (≈ 15 µM) | – | – | –

— patent US20210238197A1, “NOVEL OXOQUINOLIZINE COMPOUNDS FOR THE TREATMENT AND PROPHYLAXIS OF BACTERIAL INFECTION” (Hoffmann-La Roche Inc., priority 2018, published 2021)
